Data: ChEMBL document CHEMBL1201862, “PubChem BioAssay data set” (2004)
Active and inactive are the calls of the source.

Legend:
Type in all cases: functional
[1] = biological target: Inhibitor of nuclear factor kappa-B kinase subunit epsilon (Homo sapiens, UniProt Q14164); experiment: Navigating the Kinome. Panel member name: IKBKE
[2] = biological target: Vascular endothelial growth factor receptor 2 (Homo sapiens, UniProt P35968)
[3] = biological target: ALK tyrosine kinase receptor (Homo sapiens, UniProt Q9UM73);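 further: ALK tested as one member of a kinase panel screen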
[4] = biological target: Vascular endothelial growth factor receptor 1 (Homo sapiens, UniProt P17948);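 further: measured within a kinome-wide profiling panel, FLT1 as the panel member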
[5] = biological target: Mitogen-activated protein kinase kinase kinase kinase 2 (Homo sapiens, UniProt Q12851);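 further: measured as one member of a kinome-wide kinase panel, with MAP4K2 as the panel entry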
[6] = biological target: Mitogen-activated protein kinase 8 (Homo sapiens, UniProt P45983);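 further: value comes from one member of a kinome-wide kinase profiling panel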
[7] = biological target: Dual specificity tyrosine-phosphorylation-regulated kinase 1A (Homo sapiens, UniProt Q13627);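 further: measured against DYRK1A as one member of a broad kinome profiling panel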
[8] = biological target: Serine/threonine-protein kinase D3 (Homo sapiens, UniProt O94806);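 further: determined within a kinase panel screen, with PRKCN as the panel member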
[9] = biological target: Tyrosine-protein kinase BTK (Homo sapiens, UniProt Q06187)
[10] = biological target: Protein kinase C theta type (Homo sapiens, UniProt Q04759); experiment: Navigating the Kinome. Panel member name: PRKCQ
Activin receptor type-1 = Activin receptor type-1 (Homo sapiens, UniProt Q04771); experiment: Navigating the Kinome. Panel member name: ACVR1
LIM domain kinase 1 = LIM domain kinase 1 (Homo sapiens, UniProt P53667); experiment: Navigating the Kinome. Panel member name: LIMK1
[11] = biological target: Tyrosine-protein kinase JAK3 (Homo sapiens, UniProt P52333)
[12] = biological target: Rho-associated protein kinase 1 (Homo sapiens, UniProt Q13464);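 further: measured within a broad kinome-wide panel profiling many kinases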
[13] = biological target: Leukocyte tyrosine kinase receptor (Homo sapiens, UniProt P29376); experiment: Navigating the Kinome. Panel member name: LTK
[14] = biological target: Death-associated protein kinase 3 (Homo sapiens, UniProt O43293);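 further: measured as one member of a kinome-wide profiling panel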
[15] = biological target: Dual specificity protein kinase CLK4 (Homo sapiens, UniProt Q9HAZ1)
Focal adhesion kinase 1 = Focal adhesion kinase 1 (Homo sapiens, UniProt Q05397);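 further: measured as one member of a kinome panel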
[16] = biological target: Calcium/calmodulin-dependent protein kinase type II subunit alpha (Homo sapiens, UniProt Q9UQM7); experiment: Navigating the Kinome. Panel member name: CAMK2A
[17] = biological target: Serine/threonine-protein kinase Nek2 (Homo sapiens, UniProt P51955)
Activated CDC42 kinase 1 = Activated CDC42 kinase 1 (Homo sapiens, UniProt Q07912); experiment: Navigating the Kinome. Panel member name: ACK1
[18] = biological target: Macrophage-stimulating protein receptor (Homo sapiens, UniProt Q04912); experiment: Navigating the Kinome. Panel member name: MST1R
[19] = biological target: Dual specificity protein kinase CLK2 (Homo sapiens, UniProt P49760)
[20] = biological target: Hepatocyte growth factor receptor (Homo sapiens, UniProt P08581);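 further: kinase panel profiling across the kinome, with MET as the panel member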
[21] = biological target: Cyclin-dependent kinase 5 (Homo sapiens, UniProt Q00535);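 further: CDK5 measured as one member of a kinase profiling panel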
[22] = biological target: 5'-AMP-activated protein kinase catalytic subunit alpha-1 (Homo sapiens, UniProt Q13131)
[23] = biological target: Platelet-derived growth factor receptor alpha (Homo sapiens, UniProt P16234); experiment: Navigating the Kinome. Panel member name: PDGFRA
[24] = biological target: Dual specificity tyrosine-phosphorylation-regulated kinase 1B (Homo sapiens, UniProt Q9Y463); experiment: Navigating the Kinome. Panel member name: DYRK1B
Aurora kinase A = biological target: T1, Aurora kinase A (Homo sapiens, UniProt O14965);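 further: value from the Navigating the Kinome kinase panel profiling, panel entry STK6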
T1 sequence (O14965 whole entry): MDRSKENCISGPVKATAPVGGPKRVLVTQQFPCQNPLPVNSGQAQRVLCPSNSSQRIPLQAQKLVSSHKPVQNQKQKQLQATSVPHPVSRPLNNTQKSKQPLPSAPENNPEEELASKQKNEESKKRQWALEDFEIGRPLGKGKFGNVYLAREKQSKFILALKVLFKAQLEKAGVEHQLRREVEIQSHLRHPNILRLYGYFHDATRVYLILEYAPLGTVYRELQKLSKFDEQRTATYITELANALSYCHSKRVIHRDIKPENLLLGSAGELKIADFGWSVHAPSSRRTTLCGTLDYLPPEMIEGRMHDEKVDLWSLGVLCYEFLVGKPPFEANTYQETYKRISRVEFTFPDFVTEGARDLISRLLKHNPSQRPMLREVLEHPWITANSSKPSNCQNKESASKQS

[25] = biological target: Platelet-derived growth factor receptor beta (Homo sapiens, UniProt P09619);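 further: value comes from a kinome panel, with PDGFRB tested as one panel member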
[26] = biological target: Fibroblast growth factor receptor 1 (Homo sapiens, UniProt P11362)
[27] = biological target: Serine/threonine-protein kinase PAK 4 (Homo sapiens, UniProt O96013);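 further: value obtained within a kinome profiling panel in which PAK4 was one of the panel members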
[28] = biological target: Glycogen synthase kinase-3 alpha (Homo sapiens, UniProt P49840);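 further: GSK3A result taken from a broad kinome-wide kinase panel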
[29] = biological target: Casein kinase I isoform alpha (Homo sapiens, UniProt P48729)
[30] = biological target: Cyclin-dependent kinase 9 (Homo sapiens, UniProt P50750);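 further: value from the CDK9 entry of a kinome-spanning kinase panel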
[31] = biological target: Serine/threonine-protein kinase TBK1 (Homo sapiens, UniProt Q9UHD2); experiment: Navigating the Kinome. Panel member name: TBK1
[32] = biological target: Tyrosine-protein kinase ABL1 (Homo sapiens, UniProt P00519)
[33] = biological target: Serine/threonine-protein kinase TAO1 (Homo sapiens, UniProt Q7L7X3)
[34] = biological target: Receptor-type tyrosine-protein kinase FLT3 (Homo sapiens, UniProt P36888);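 further: FLT3 was tested as one member of a kinome-wide kinase panel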
[35] = biological target: Ribosomal protein S6 kinase alpha-3 (Homo sapiens, UniProt P51812);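 further: measured within a kinome-wide profiling panel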
[36] = biological target: Tyrosine-protein kinase receptor TYRO3 (Homo sapiens, UniProt Q06418);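 further: TYRO3 value obtained as one member of a kinome-wide profiling panel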
[37] = biological target: Dual specificity mitogen-activated protein kinase kinase 1 (Homo sapiens, UniProt Q02750); experiment: Navigating the Kinome. Panel member name: MAP2K1

Measured: Ki

Protein kinase C theta type, sequence (Q04759 whole entry): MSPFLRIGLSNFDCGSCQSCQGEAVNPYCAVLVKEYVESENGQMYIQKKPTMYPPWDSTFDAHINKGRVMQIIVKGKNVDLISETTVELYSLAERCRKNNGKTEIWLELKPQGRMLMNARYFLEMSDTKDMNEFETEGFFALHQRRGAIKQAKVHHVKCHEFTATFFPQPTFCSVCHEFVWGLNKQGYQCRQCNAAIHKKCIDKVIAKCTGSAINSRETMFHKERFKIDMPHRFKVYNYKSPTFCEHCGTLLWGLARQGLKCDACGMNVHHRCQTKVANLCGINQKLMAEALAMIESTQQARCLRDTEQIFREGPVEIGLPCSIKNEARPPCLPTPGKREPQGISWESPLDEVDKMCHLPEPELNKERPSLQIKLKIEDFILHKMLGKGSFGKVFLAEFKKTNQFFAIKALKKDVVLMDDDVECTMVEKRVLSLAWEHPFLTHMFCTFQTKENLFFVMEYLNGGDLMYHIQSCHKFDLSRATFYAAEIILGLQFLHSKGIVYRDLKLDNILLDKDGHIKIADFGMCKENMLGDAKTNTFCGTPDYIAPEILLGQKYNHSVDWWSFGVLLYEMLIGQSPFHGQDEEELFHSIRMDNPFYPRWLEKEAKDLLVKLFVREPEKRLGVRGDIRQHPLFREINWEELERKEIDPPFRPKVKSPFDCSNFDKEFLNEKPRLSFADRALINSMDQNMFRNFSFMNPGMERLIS
Fibroblast growth factor receptor 1, sequence (P11362 whole entry): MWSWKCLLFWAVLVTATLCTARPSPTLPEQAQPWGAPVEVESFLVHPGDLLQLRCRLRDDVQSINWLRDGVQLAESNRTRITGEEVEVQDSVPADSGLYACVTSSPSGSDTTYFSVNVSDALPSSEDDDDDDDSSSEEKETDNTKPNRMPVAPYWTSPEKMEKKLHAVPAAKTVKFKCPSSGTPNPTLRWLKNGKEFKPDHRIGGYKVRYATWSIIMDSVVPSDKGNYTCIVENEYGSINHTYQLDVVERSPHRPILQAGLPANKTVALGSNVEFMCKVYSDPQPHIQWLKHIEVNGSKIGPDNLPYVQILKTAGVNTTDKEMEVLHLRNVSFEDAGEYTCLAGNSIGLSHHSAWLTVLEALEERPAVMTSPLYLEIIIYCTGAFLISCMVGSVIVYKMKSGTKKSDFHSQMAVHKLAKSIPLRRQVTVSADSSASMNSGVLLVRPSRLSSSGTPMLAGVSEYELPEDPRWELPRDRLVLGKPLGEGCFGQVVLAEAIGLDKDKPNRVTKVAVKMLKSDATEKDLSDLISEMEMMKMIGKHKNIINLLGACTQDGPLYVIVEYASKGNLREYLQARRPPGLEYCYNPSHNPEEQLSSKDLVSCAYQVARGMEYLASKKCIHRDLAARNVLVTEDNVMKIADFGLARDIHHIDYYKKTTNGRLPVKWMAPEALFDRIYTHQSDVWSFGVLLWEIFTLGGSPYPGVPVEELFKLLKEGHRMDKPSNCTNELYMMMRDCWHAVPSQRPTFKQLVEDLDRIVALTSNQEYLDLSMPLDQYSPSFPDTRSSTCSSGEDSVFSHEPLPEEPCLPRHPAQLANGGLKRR
Rho-associated protein kinase 1, sequence (Q13464 whole entry): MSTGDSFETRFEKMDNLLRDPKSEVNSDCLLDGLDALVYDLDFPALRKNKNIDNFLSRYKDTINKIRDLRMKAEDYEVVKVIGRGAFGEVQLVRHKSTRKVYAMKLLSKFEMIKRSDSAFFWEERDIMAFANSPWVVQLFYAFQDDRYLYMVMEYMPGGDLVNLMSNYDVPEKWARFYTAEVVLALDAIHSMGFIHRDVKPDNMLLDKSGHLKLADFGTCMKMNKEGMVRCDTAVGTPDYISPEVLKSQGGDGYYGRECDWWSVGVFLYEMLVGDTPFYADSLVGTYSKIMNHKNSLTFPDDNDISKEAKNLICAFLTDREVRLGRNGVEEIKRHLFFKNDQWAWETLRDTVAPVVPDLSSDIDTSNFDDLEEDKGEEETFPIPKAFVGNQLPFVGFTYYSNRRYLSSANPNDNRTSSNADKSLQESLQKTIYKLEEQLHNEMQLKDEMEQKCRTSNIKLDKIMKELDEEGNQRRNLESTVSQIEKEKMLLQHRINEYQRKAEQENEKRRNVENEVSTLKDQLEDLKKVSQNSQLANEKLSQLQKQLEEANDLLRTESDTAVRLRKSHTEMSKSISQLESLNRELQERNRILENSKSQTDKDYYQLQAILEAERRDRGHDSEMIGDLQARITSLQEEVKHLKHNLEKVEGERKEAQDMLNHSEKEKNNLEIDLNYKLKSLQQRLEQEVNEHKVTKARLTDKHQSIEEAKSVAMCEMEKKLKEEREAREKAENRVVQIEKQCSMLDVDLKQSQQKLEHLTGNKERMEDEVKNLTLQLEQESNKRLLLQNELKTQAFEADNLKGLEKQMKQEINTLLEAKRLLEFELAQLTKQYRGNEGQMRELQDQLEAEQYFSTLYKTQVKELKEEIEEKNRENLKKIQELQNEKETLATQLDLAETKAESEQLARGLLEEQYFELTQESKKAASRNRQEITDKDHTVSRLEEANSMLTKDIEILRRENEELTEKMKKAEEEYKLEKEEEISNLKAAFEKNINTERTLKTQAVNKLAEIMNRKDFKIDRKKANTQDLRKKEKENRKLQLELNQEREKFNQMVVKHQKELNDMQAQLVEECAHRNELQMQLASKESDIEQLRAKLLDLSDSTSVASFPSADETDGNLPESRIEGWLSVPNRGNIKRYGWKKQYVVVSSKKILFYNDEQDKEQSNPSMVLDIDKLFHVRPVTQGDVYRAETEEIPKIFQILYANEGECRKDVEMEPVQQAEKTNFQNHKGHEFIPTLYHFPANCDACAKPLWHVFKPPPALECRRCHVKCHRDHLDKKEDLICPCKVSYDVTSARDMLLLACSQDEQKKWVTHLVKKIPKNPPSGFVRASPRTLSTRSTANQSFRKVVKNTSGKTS
Leukocyte tyrosine kinase receptor, sequence (P29376 whole entry): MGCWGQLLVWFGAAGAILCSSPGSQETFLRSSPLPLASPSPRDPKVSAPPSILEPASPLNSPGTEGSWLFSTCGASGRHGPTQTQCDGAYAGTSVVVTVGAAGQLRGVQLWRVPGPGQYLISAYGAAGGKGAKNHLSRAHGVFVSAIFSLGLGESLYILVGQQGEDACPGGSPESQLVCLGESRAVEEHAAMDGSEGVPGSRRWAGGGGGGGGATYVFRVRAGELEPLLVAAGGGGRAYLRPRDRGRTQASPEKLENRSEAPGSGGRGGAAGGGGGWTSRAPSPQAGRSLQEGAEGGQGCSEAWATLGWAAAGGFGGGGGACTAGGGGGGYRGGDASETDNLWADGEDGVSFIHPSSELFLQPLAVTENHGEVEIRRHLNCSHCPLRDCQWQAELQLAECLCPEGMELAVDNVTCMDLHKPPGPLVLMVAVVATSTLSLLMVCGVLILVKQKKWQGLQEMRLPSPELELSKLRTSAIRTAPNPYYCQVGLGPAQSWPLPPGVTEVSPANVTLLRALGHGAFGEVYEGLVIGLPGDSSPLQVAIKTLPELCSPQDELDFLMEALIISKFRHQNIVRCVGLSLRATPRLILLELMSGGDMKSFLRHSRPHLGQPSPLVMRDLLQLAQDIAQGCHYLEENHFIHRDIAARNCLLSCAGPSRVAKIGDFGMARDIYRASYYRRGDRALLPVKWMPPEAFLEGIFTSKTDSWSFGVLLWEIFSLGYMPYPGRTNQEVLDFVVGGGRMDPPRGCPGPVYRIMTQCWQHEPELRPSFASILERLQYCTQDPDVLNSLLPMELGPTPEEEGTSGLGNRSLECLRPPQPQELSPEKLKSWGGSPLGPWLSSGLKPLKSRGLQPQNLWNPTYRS
Serine/threonine-protein kinase Nek2, sequence (P51955 whole entry): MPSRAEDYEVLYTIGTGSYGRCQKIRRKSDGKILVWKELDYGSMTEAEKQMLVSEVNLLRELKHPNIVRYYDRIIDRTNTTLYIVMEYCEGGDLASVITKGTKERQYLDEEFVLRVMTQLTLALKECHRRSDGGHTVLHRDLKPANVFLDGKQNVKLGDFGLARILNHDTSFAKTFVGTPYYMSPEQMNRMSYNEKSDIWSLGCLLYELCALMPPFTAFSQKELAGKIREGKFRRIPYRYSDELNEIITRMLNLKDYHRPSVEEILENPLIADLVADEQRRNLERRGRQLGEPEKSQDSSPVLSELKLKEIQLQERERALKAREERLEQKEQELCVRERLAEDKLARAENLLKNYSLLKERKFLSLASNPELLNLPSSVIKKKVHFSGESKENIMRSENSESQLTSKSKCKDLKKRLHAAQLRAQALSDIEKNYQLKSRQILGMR
Dual specificity protein kinase CLK4, sequence (Q9HAZ1 whole entry): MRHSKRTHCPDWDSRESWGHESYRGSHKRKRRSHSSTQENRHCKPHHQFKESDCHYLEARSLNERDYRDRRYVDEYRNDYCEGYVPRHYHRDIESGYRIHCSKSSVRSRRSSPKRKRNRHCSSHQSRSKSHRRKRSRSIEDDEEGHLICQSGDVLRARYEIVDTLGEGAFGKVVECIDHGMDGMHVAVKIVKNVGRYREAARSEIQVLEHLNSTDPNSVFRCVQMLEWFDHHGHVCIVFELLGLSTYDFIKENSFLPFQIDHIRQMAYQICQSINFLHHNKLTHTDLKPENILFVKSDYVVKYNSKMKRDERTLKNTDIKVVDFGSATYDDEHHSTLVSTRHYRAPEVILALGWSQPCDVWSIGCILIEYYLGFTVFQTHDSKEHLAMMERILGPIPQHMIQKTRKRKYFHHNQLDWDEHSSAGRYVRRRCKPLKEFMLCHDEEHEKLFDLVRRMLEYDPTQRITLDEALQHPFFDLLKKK
Casein kinase I isoform alpha, sequence (P48729 whole entry, canonical isoform): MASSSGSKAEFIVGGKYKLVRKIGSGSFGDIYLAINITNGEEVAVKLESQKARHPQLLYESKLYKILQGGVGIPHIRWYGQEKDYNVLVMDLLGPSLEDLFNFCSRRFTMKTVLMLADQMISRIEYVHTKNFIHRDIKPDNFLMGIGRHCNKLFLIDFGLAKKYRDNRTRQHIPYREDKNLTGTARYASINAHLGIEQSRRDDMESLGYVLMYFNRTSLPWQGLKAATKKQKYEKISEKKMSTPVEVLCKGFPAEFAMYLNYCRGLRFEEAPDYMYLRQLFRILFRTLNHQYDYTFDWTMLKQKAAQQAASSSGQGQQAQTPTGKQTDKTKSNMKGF

COc1cc2c(cc1Nc1nc(Nc3cccc(F)c3C(N)=O)c3cc[nH]c3n1)N(C(=O)CN(C)C)CC2
inactive: [1] > 3.16 µM | [2] > 2.51 µM | [4] > 3.98 µM | [5] > 2.51 µM | [7] > 1.58 µM | [9] > 6.31 µM | [10] > 2.51 µM | Activin receptor type-1 > 3.98 µM | LIM domain kinase 1 > 3.16 µM | [11] > 5.01 µM | [16] > 3.98 µM | [17] > 3.16 µM | [18] > 3.98 µM | [20] > 2.51 µM | [21] > 3.16 µM | [22] > 3.16 µM | [23] > 2.51 µM | Aurora kinase A > 1.58 µM | [25] > 2 µM | [26] > 3.98 µM | [27] > 5.01 µM | [28] > 3.98 µM | [30] > 1.58 µM | [31] > 3.16 µM | [32] > 2.51 µM | [34] > 2.51 µM | [36] > 3.16 µM | [37] > 3.16 µM
active: [3] 0.00126 µM | [6] 0.158 µM | [8] 398 nM | [12] 2 µM | [13] 1.58 nM | [14] 0.1 µM | [15] 20 nM | Focal adhesion kinase 1 0.0398 µM | Activated CDC42 kinase 1 2 µM | [19] 0.0316 µM | [24] 1.26 µM | [29] 1.26 µM | [33] 2 µM | [35] 0.631 µM

O=c1[nH][nH]c2ccc(Br)cc12
active: [1] 7.94 µM | [2] 63.1 µM | [3] 79.4 µM | [4] 7.94 µM | [5] 31.6 µM | [6] 25.1 µM | [7] 1.58 µM | [8] 3160 nM | [9] 31.6 µM | [10] 31.6 µM | Activin receptor type-1 7.94 µM | LIM domain kinase 1 3.16 µM | [11] 25.1 µM | [12] 15.8 µM | [13] 5010 nM | [14] 7.94 µM | [15] 1260 nM | Focal adhesion kinase 1 31.6 µM | [16] 31.6 µM | [17] 6.31 µM | Activated CDC42 kinase 1 31.6 µM | [18] 31.6 µM | [19] 15.8 µM | [20] 12.6 µM | [21] 3.16 µM | [22] 12.6 µM | [23] 15.8 µM | [24] 3.16 µM | Aurora kinase A 7.94 µM | [25] 63.1 µM | [26] 31.6 µM | [27] 50.1 µM | [28] 39.8 µM | [29] 7.94 µM | [30] 5.01 µM | [31] 31.6 µM | [32] 39.8 µM | [33] 79.4 µM | [34] 79.4 µM | [35] 31.6 µM | [36] 10 µM | [37] 25.1 µM
